# According to ChEMBL document CHEMBL1681668, “Discovery of INCB10820/PF-4178903, a potent, selective, and orally bioavailable dual CCR2 and CCR5 antagonist” (Bioorg Med Chem Lett, 2011):
# How the values were obtained:
# [1] = target: C-C chemokine receptor type 5 (Homo sapiens, UniProt P51681); test: Displacement of labeled MIP-1beta from human CCR5 receptor
# [2] = target: C-C chemokine receptor type 2 (Homo sapiens) (UniProt P41597); test: Displacement of [125I]MCP1 from human CCR2 at 1000 nM after 30 mins by gamma counting
# Sequence of C-C chemokine receptor type 2 (Homo sapiens) (P41597 whole entry, looked up): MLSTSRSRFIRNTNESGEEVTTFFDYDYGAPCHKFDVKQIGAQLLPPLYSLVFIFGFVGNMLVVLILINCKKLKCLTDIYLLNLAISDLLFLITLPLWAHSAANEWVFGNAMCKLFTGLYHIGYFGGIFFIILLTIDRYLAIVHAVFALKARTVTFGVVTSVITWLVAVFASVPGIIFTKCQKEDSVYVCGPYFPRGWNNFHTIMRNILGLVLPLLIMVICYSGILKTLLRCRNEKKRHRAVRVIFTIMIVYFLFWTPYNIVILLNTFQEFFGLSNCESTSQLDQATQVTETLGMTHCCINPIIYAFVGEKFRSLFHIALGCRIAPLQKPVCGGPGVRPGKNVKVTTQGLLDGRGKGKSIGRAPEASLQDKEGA
# [3] = Oral bioavailability in rat at 10 mg/kg; format: ADME, organism-based; settings: in vivo
# [4] = Half life in human liver microsomes; format: ADME, Microsome
# [5] = Half life in rat at 5 mg/kg, iv; format: ADME, organism-based; design: dose 5 mg/kg, route intravenous; settings: in vivo
# [6] = AUC in rat at 10 mg/kg, po; format: ADME, organism-based; design: dose 10 mg/kg, route oral; settings: plasma
# [7] = AUC in cynomolgus monkey at 10 mg/kg, po; format: ADME, organism-based, Macaca fascicularis; design: dose 10 mg/kg, route oral; settings: plasma
# [8] = Volume of distribution at steady state in rat at 5 mg/kg, iv and 10 mg/kg, po; format: ADME, organism-based; settings: in vivo, read-out: Vdss
# [9] = Volume of distribution at steady state in cynomolgus monkey at […], iv and 10 mg/kg, po; format: ADME, organism-based, Macaca fascicularis; settings: in vivo, read-out: Vdss
# [10] = Clearance in rat at 5 mg/kg, iv and 10 mg/kg, po; format: ADME, organism-based; settings: in vivo
# [11] = Clearance in cynomolgus monkey at […], iv and 10 mg/kg, po; format: ADME, organism-based, Macaca fascicularis; settings: in vivo
# [12] = Half life in cynomolgus monkey at […], iv; format: ADME, organism-based, Macaca fascicularis; design: dose 2.5 mg/kg, route intravenous; settings: in vivo
# [13] = Oral bioavailability in cynomolgus monkey at 10 mg/kg; format: ADME, organism-based, Macaca fascicularis; settings: in vivo
# Sequence of C-C chemokine receptor type 5 (P51681 whole entry): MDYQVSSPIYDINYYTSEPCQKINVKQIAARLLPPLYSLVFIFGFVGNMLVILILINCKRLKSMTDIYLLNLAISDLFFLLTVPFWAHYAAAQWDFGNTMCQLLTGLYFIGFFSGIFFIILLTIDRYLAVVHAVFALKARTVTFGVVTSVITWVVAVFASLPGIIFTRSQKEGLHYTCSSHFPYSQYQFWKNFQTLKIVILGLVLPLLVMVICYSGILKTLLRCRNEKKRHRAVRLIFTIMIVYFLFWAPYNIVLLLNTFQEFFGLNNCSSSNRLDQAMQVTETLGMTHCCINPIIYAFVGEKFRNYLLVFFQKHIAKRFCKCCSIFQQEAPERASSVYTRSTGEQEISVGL
SMILES,IC50 [1] [nM],other results
COC[C@@H]1COCC[C@@H]1N[C@@H]1CC[C@@](C(=O)N2CCN(c3cccc(C(F)(F)F)c3)CC2)(C(C)C)C1,201,
CC[C@@H]1COCC[C@H]1N[C@@H]1CC[C@@](C(=O)N2CCN(c3cccc(C(F)(F)F)c3)CC2)(C(C)C)C1,1000,
CC(C)[C@]1(C(=O)N2CCN(c3ccc(C(F)(F)F)cc3)CC2)CC[C@@H](NC2CCOCC2)C1,,inhibition [2]: 40%
COC[C@H]1COCC[C@H]1N[C@@H]1CC[C@@](C(=O)N2CCN(c3cccc(C(F)(F)F)c3)CC2)(C(C)C)C1,572,
CC[C@H]1COCC[C@H]1N[C@@H]1CC[C@@](C(=O)N2CCN(c3cccc(C(F)(F)F)c3)CC2)(C(C)C)C1,312,
CC(C)[C@]1(C(=O)N2CCN(c3cccc(C(F)(F)F)c3)CC2)CC[C@@H](NC2CCOCC2)C1,283,
CCO[C@@H]1COCC[C@@H]1N[C@@H]1CC[C@@](C(=O)N2CCN(c3cccc(C(F)(F)F)c3)CC2)(C(C)C)C1,22.5,
CCO[C@H]1COCC[C@H]1N[C@@H]1CC[C@@](C(=O)N2CCN(c3cccc(C(F)(F)F)c3)CC2)(C(C)C)C1,206,
CC(C)[C@]1(C(=O)N2CCC(c3ccccc3)CC2)CC[C@@H](NC2CCOCC2)C1,,inhibition [2]: 0%
CO[C@@H]1COCC[C@@H]1N[C@@H]1CC[C@](CC(F)(F)F)(C(=O)N2CCN(c3cc(C(F)(F)F)ccn3)CC2)C1,8.4,
CC[C@H]1COCC[C@@H]1N[C@@H]1CC[C@@](C(=O)N2CCN(c3cccc(C(F)(F)F)c3)CC2)(C(C)C)C1,546,
CC(C)[C@]1(C(=O)N2CCN(c3cccc(C(F)(F)F)c3)CC2)CC[C@@H](N[C@@H]2CCOC[C@H]2C)C1,> 1000,
CC(C)[C@]1(C(=O)N2CCN(c3ccccc3C(F)(F)F)CC2)CC[C@@H](NC2CCOCC2)C1,,inhibition [2]: 19%
CO[C@@H]1COCC[C@@H]1N[C@@H]1CC[C@@](C(=O)N2CCN(c3cccc(C(F)(F)F)c3)CC2)(C(C)C)C1,23,
CC(C)[C@]1(C(=O)N2CCN(c3cccc(C(F)(F)F)c3)CC2)CC[C@@H](N[C@H]2CCOC[C@@H]2C)C1,370,
CC(C)[C@]1(C(=O)N2CCN(c3cccc(C(F)(F)F)c3)CC2)CC[C@@H](N[C@@H]2CCOC[C@@H]2C)C1,108,
CO[C@@H]1COCC[C@@H]1N[C@@H]1CC[C@@](C(=O)N2CCN(c3cccc(C(F)(F)F)n3)CC2)(C(C)C)C1,26.5,
CO[C@H]1COCC[C@H]1N[C@@H]1CC[C@@](C(=O)N2CCN(c3cccc(C(F)(F)F)c3)CC2)(C(C)C)C1,204,
CO[C@@H]1COCC[C@@H]1N[C@@H]1CC[C@@](C(=O)N2CCN(c3cc(C(F)(F)F)ccn3)CC2)(C(C)C)C1,,bioavailability [3]: 84%; half-life [4]: 1.55 h; half-life [5]: 5 h; AUC [6]: 3 µM·h; AUC [7]: 5.3 µM·h; Vd [8]: 17 L/kg; Vd [9]: 6.2 L/kg; clearance [10]: 63.3 mL/min/kg; clearance [11]: 36.7 mL/min/kg; half-life [12]: 3 h; bioavailability [13]: 57%
CC[C@@H]1COCC[C@@H]1N[C@@H]1CC[C@@](C(=O)N2CCN(c3cccc(C(F)(F)F)c3)CC2)(C(C)C)C1,18,
CC(C)[C@]1(C(=O)N2CCN(c3cccc(C(F)(F)F)c3)CC2)CC[C@@H](N[C@H]2CCOC[C@H]2C)C1,77,
